Among the data in article PMC7916972, “Therapeutic Targeting of Fumaryl Acetoacetate Hydrolase in Hereditary Tyrosinemia Type I” (International Journal of Molecular Sciences, 2021) are Kd values, retold here.

Test [1] has as its target T1, Fumarylacetoacetate hydrolase (WT FAH) (Homo sapiens, UniProt P16930).
T1 sequence (P16930 2-419): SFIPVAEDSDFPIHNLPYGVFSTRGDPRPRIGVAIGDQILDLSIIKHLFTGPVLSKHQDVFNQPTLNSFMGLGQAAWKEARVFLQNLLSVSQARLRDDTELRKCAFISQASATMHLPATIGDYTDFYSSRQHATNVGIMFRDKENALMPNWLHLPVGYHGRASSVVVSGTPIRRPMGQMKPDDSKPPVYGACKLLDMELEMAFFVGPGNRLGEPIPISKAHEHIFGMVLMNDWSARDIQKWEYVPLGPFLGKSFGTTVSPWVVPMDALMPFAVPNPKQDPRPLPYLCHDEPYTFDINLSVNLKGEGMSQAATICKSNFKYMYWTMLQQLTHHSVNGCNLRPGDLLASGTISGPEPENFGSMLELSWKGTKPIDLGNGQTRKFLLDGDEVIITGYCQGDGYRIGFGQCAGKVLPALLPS
The test can be described thus: STD NMR titration; methyl-TROSY M140 splitting. In kind it is binding.

The target of test [2] is T1, Fumarylacetoacetate hydrolase (WT FAH). In words: STD NMR titration; methyl-TROSY M140 shift. In kind it is binding.

For the compound `C#Cc1ccncc1` [G1.30.B10], binding in test [1] was characterised by a dissociation constant (Kd) of 235 µM.

On to `C(#Cc1ccncc1)c1ccncc1` [G2.HT1.1], for which the dissociation constant (Kd) (commonly the concentration at which binding is half-saturated) in test [2] was 20 µM.

As for `Cc1ccnc(NC(=O)c2ccc(C)c(N)c2)c1` [G2.HT1.4], in test [2], the Kd turned out to be 21 µM.
